Reference: DBAASP
In brackets after ≈: the same amount, converted by molar mass.

What was measured:
Assay in all cases: ≥ marks a high value that may be exact or a test limit, other limits are often not marked, values filed in µg/mL are converted to µM
[1] = tested on: Streptococcus agalactiae BCRC 10787
[2] = tested on: Pseudomonas aeruginosa ATCC 19660
[3] = tested on: Aeromonas hydrophila BCRC 13018
[4] = tested on: Enterococcus faecalis BCRC 10066
[5] = tested on: Streptococcus agalactiae 819
Vibrio alginolyticus = tested on: Vibrio alginolyticus
Vibrio vulnificus 204 = tested on: Vibrio vulnificus 204
[6] = tested on: Staphylococcus epidermidis
Escherichia coli = tested on: Escherichia coli
Listeria innocua = tested on: Listeria innocua
Micrococcus luteus = tested on: Micrococcus luteus
Pasteurella multocida = tested on: Pasteurella multocida
Streptococcus uberis = tested on: Streptococcus uberis
Leuconostoc lactis = tested on: Leuconostoc lactis
Staphylococcus aureus = tested on: Staphylococcus aureus
Bacillus cereus = tested on: Bacillus cereus
Pseudomonas aeruginosa = tested on: Pseudomonas aeruginosa
Klebsiella pneumoniae = tested on: Klebsiella pneumoniae
Proteus mirabilis = tested on: Proteus mirabilis
Salmonella typhimurium = tested on: Salmonella typhimurium
Shigella dysenteriae = tested on: Shigella dysenteriae
Serratia marcescens = tested on: Serratia marcescens
Candida albicans = tested on: Candida albicans

MIC [6]	MIC (Escherichia coli)	MIC (Listeria innocua)	MIC (Micrococcus luteus)	MIC (Pasteurella multocida)	MIC (Streptococcus uberis)	MIC (Leuconostoc lactis)	MIC (Staphylococcus aureus)	MIC (Bacillus cereus)	Compound	other results
–	–	–	–	–	–	–	–	–	CC[C@H](C)[C@H](NC(=O)[C@H](C)NC(=O)[C@H](CC(=O)O)NC(=O)[C@H](Cc1c[nH]c2ccccc12)NC(=O)[C@@H](NC(=O)[C@H](CS)NC(=O)[C@H](CCC(=O)O)NC(=O)CN)[C@@H](C)CC)C(=O)N[C@@H](Cc1ccccc1)C(=O)N[C@@H](Cc1cnc[nH]1)C(=O)NCC(=O)N[C@@H](C)C(=O)N[C@@H](CCCCN)C(=O)N[C@@H](Cc1cnc[nH]1)C(=O)N[C@@H](Cc1ccccc1)C(=O)N[C@@H](CC(C)C)C(=O)N[C@@H](Cc1cnc[nH]1)C(=O)N[C@@H](CCCN=C(N)N)C(=O)N[C@@H](CC(C)C)C(=O)N[C@H](C(=O)N[C@@H](CC(N)=O)C(=O)N1CCC[C@H]1C(N)=O)C(C)C [GECIWDAIFHGAKHFLHRLVNP]	MIC [1]: 7.62 µM (≈ 19.5 µg/mL); MIC [2]: 7.62 µM (≈ 19.5 µg/mL); MIC [3]: 7.62 µM (≈ 19.5 µg/mL); MIC [4]: 7.62 µM (≈ 19.5 µg/mL); MIC [5]: 7.62 µM (≈ 19.5 µg/mL); MIC (Vibrio alginolyticus): 7.62 µM (≈ 19.5 µg/mL); MIC (Vibrio vulnificus 204): 7.62 µM (≈ 19.5 µg/mL)
15.6 µM (≈ 25 µg/mL)	> 62.5 µM	≥ 62.5 µM	7.5 µM (≈ 12 µg/mL)	≥ 62.5 µM	15.6 µM (≈ 25 µg/mL)	3.75 µM (≈ 6 µg/mL)	15.6 µM (≈ 25 µg/mL)	31.3 µM (≈ 50 µg/mL)	CC[C@H](C)[C@H](NC(=O)[C@@H](NC(=O)[C@H](C)NC(=O)[C@H](C)NC(=O)[C@@H](NC(=O)[C@H](CCCCN)NC(=O)[C@H](CCCCN)NC(=O)[C@@H](NC(=O)[C@@H](NC(=O)[C@H](CC(=O)O)NC(=O)[C@H](Cc1ccccc1)NC(=O)[C@H](CC(C)C)NC(=O)CN)C(C)C)[C@@H](C)CC)C(C)C)C(C)C)C(=O)NCC(=O)NCC(=O)N[C@@H](CC(C)C)C(N)=O [GLFDVIKKVAAVIGGL]	–
–	5 µM (≈ 10.1 µg/mL)	–	1.23 µM (≈ 2.5 µg/mL)	–	–	–	15 µM (≈ 30.4 µg/mL)	–	CC(C)C[C@@H]1NC(=O)CNC(=O)[C@H](CO)NC(=O)[C@H](C(C)C)NC(=O)CNC(=O)[C@@H](NC(=O)[C@H](CC(C)C)NC(=O)[C@@H](NC(=O)[C@H](CCCCN)NC(=O)[C@H](CCCCN)NC(=O)CNC(=O)[C@@H](NC(=O)CNC(=O)[C@H](CC(C)C)NC(=O)[C@@H](NC(=O)[C@H](CCCCN)NC(=O)[C@H](CO)NC(=O)[C@H](CC(C)C)NC(=O)[C@H](CC(C)C)NC(=O)CN)C(C)C)C(C)C)C(C)C)CSSC[C@@H](C(=O)O)NC1=O [GLLSKVLGVGKKVLCGVSGLC]	MIC (Pseudomonas aeruginosa): 49.2 µM (≈ 99.9 µg/mL); MIC (Klebsiella pneumoniae): 4.92 µM (≈ 9.99 µg/mL); MIC (Proteus mirabilis): ≥ 98.5 µM; MIC (Salmonella typhimurium): 11.1 µM (≈ 22.5 µg/mL); MIC (Shigella dysenteriae): 4.92 µM (≈ 9.99 µg/mL); MIC (Serratia marcescens): ≥ 98.5 µM; MIC (Candida albicans): 73.9 µM (≈ 150 µg/mL)
≥ 42.2 µM	21.1 µM (≈ 50 µg/mL)	≥ 42.2 µM	10.5 µM (≈ 25 µg/mL)	≥ 42.2 µM	≥ 42.2 µM	≥ 42.2 µM	> 42.2 µM	≥ 42.2 µM	CC[C@H](C)[C@H](NC(=O)CNC(=O)[C@H](CCC(=O)O)NC(=O)[C@@H](NC(=O)[C@@H](NC(=O)CNC(=O)[C@H](CO)NC(=O)[C@H](C)NC(=O)[C@H](CC(C)C)NC(=O)[C@H](CC(=O)O)NC(=O)CNC(=O)[C@H](C)NC(=O)[C@H](C)NC(=O)[C@H](CCC(N)=O)NC(=O)[C@H](CCCCN)NC(=O)[C@@H](NC(=O)[C@H](CCCCN)NC(=O)[C@H](CCC(N)=O)NC(=O)[C@H](Cc1c[nH]c2ccccc12)NC(=O)[C@H](CC(C)C)NC(=O)CN)[C@@H](C)CC)[C@@H](C)CC)C(C)C)C(=O)N[C@@H](CCCCN)C(=O)N[C@@H](CO)C(N)=O [GLWQKIKQAAGDLASGIVEGIKS]	–
